Source: ChEMBL document CHEMBL1201862, “PubChem BioAssay data set” (2004)
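Five compound concentrations were applied to cells in 96-well plates for 48 hours; endpoints were derived by simple linear interpolation of the resulting dose-response curve. Abbreviation: GI50, concentration required for 50% inhibition of growth.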 Activity calls are given as the source filed them. No stated cut-off is given here; in the data, active = GI50 up to about 1.1 µM and inactive = higher.

Tests used:
Assay in all cases: NCI tumour cell line growth inhibition, 48 h
A498 = test system: A498
A549 = test system: A549
ACHN = test system: ACHN
BT-549 = test system: BT-549
CAKI-1 = test system: CAKI-1
CCRF-CEM = test system: CCRF-CEM
COLO 205 = test system: COLO 205
DU-145 = test system: DU-145
EKVX = test system: EKVX
HCC 2998 = test system: HCC 2998
HCT-116 = test system: HCT-116
HCT-15 = test system: HCT-15
HL-60 = test system: HL-60
HOP-62 = test system: HOP-62
HOP-92 = test system: HOP-92
HT-29 = test system: HT-29
Hs-578T = test system: Hs-578T
IGROV-1 = test system: IGROV-1
K562 = test system: K562
KM12 = test system: KM12
LOX IMVI = test system: LOX IMVI
M14 = test system: M14
MCF7 = test system: MCF7
MDA-MB-231 = test system: MDA-MB-231
MDA-MB-435 = test system: MDA-MB-435
MDA-N = test system: MDA-N
MOLT-4 = test system: MOLT-4
Malme-3M = test system: Malme-3M
NCI-H226 = test system: NCI-H226
NCI-H23 = test system: NCI-H23
NCI-H460 = test system: NCI-H460
NCI-H522 = test system: NCI-H522
OVCAR-3 = test system: OVCAR-3
OVCAR-5 = test system: OVCAR-5
PC-3 = test system: PC-3
RPMI-8226 = test system: RPMI-8226
RXF 393 = test system: RXF 393
SF-268 = test system: SF-268
SF-295 = test system: SF-295
SF-539 = test system: SF-539
SK-MEL-28 = test system: SK-MEL-28
SK-MEL-2 = test system: SK-MEL-2
SK-MEL-5 = test system: SK-MEL-5
SK-OV-3 = test system: SK-OV-3
SN12C = test system: SN12C
SNB-19 = test system: SNB-19
SNB-75 = test system: SNB-75
SR = test system: SR
SW-620 = test system: SW-620
T47D = test system: T47D
TK-10 = test system: TK-10
U-251 = test system: U-251
UACC-257 = test system: UACC-257
UACC-62 = test system: UACC-62
UO-31 = test system: UO-31
786-0 = test system: 786-0
NCI/ADR-RES = test system: NCI/ADR-RES
OVCAR-4 = test system: OVCAR-4
OVCAR-8 = test system: OVCAR-8

Measured: GI50

COc1ccc(C2c3cc4c(cc3OC(Nc3ccccc3)C2C)OCO4)cc1 (centres undefined)
inactive: A498 58.6 µM | A549 22.5 µM | ACHN 21.8 µM | BT-549 68.1 µM | CAKI-1 25.4 µM | CCRF-CEM 14.1 µM | COLO 205 36.1 µM | DU-145 57.9 µM | EKVX 8.59 µM | HCC 2998 67.9 µM | HCT-116 12.7 µM | HL-60 22.2 µM | HOP-62 > 100 µM | HOP-92 23.8 µM | HT-29 31.7 µM | Hs-578T > 100 µM | IGROV-1 99.8 µM | K562 15.2 µM | KM12 28.6 µM | LOX IMVI 27.7 µM | M14 85.9 µM | MCF7 23.6 µM | MDA-MB-231 > 100 µM | MDA-MB-435 67.8 µM | MDA-N > 100 µM | MOLT-4 11.2 µM | Malme-3M 63.5 µM | NCI-H226 41.1 µM | NCI-H23 64 µM | NCI-H460 7.98 µM | NCI-H522 12.1 µM | OVCAR-3 53.1 µM | OVCAR-5 > 100 µM | PC-3 28.3 µM | RPMI-8226 26 µM | RXF 393 33.5 µM | SF-268 42.9 µM | SF-295 25.5 µM | SF-539 > 100 µM | SK-MEL-28 > 100 µM | SK-MEL-2 > 100 µM | SK-MEL-5 79.4 µM | SK-OV-3 > 100 µM | SN12C 61.1 µM | SNB-19 > 100 µM | SNB-75 44.1 µM | SR 2.42 µM | SW-620 64.3 µM | T47D 36.1 µM | TK-10 91.6 µM | U-251 56.8 µM | UACC-257 75.2 µM | UACC-62 52.8 µM | UO-31 29.5 µM
33.6 µM: HCT-15

NS(=O)(=O)c1nnc(NC(=O)c2cccc([N+](=O)[O-])c2)s1
> 100 µM: HCT-15
inactive: 786-0 > 100 µM | A549 > 100 µM | ACHN > 100 µM | BT-549 > 100 µM | CAKI-1 > 100 µM | COLO 205 > 100 µM | DU-145 > 100 µM | EKVX > 100 µM | HCC 2998 > 100 µM | HCT-116 > 100 µM | HL-60 > 100 µM | HOP-62 > 100 µM | HOP-92 44.9 µM | Hs-578T > 100 µM | K562 > 100 µM | KM12 > 100 µM | LOX IMVI > 100 µM | M14 > 100 µM | MCF7 > 100 µM | MDA-MB-231 > 100 µM | MDA-MB-435 > 100 µM | MDA-N > 100 µM | MOLT-4 > 100 µM | Malme-3M > 100 µM | NCI-H226 > 100 µM | NCI-H23 > 100 µM | NCI-H460 > 100 µM | NCI-H522 > 100 µM | NCI/ADR-RES > 100 µM | OVCAR-3 > 100 µM | OVCAR-4 > 100 µM | OVCAR-5 > 100 µM | OVCAR-8 > 100 µM | RPMI-8226 > 100 µM | RXF 393 > 100 µM | SF-268 > 100 µM | SF-295 > 100 µM | SF-539 > 100 µM | SK-MEL-28 > 100 µM | SK-MEL-2 > 100 µM | SK-MEL-5 > 100 µM | SK-OV-3 > 100 µM | SN12C > 100 µM | SNB-19 > 100 µM | SR > 100 µM | SW-620 > 100 µM | T47D > 100 µM | TK-10 > 100 µM | U-251 > 100 µM | UACC-257 > 100 µM | UACC-62 > 100 µM | UO-31 > 100 µM

Cc1ccc(S(=O)(=O)NC(=O)NC(Cc2c[nH]c3ccccc23)C(=O)O)cc1 (centres undefined)
> 100 µM: HCT-15
inactive: 786-0 > 100 µM | A549 > 100 µM | BT-549 > 100 µM | CCRF-CEM > 100 µM | COLO 205 > 100 µM | DU-145 > 100 µM | HCT-116 > 100 µM | HL-60 > 100 µM | HOP-62 > 100 µM | HOP-92 > 100 µM | HT-29 > 100 µM | Hs-578T > 100 µM | IGROV-1 > 100 µM | K562 > 100 µM | KM12 > 100 µM | LOX IMVI > 100 µM | M14 > 100 µM | MDA-MB-231 > 100 µM | MDA-N > 100 µM | MOLT-4 > 100 µM | Malme-3M > 100 µM | NCI-H23 > 100 µM | NCI-H460 > 100 µM | NCI-H522 > 100 µM | NCI/ADR-RES > 100 µM | OVCAR-4 > 100 µM | OVCAR-5 > 100 µM | OVCAR-8 > 100 µM | PC-3 > 100 µM | RPMI-8226 > 100 µM | RXF 393 > 100 µM | SF-268 > 100 µM | SF-295 > 100 µM | SF-539 > 100 µM | SK-MEL-28 > 100 µM | SK-MEL-2 > 100 µM | SK-MEL-5 > 100 µM | SK-OV-3 > 100 µM | SN12C > 100 µM | SNB-19 > 100 µM | SNB-75 > 100 µM | SR > 100 µM | SW-620 > 100 µM | T47D > 100 µM | TK-10 > 100 µM | U-251 > 100 µM | UACC-257 > 100 µM | UO-31 > 100 µM

CN(C)c1cc[n+](-c2nc([N-]C(=O)C(F)(F)F)nc3c2ncn3C2CC(O)C(CO)O2)cc1 (centres undefined)
> 100 µM: HCT-15
inactive: 786-0 > 100 µM | A498 > 100 µM | A549 > 100 µM | ACHN > 100 µM | BT-549 > 100 µM | CCRF-CEM > 100 µM | COLO 205 > 100 µM | DU-145 > 100 µM | EKVX > 100 µM | HCC 2998 > 100 µM | HCT-116 > 100 µM | HL-60 > 100 µM | HOP-62 > 100 µM | HT-29 > 100 µM | Hs-578T > 100 µM | IGROV-1 > 100 µM | K562 > 100 µM | KM12 > 100 µM | LOX IMVI > 100 µM | M14 > 100 µM | MCF7 > 100 µM | MDA-MB-231 > 100 µM | MDA-MB-435 > 100 µM | MDA-N > 100 µM | MOLT-4 > 100 µM | Malme-3M > 100 µM | NCI-H226 > 100 µM | NCI-H23 > 100 µM | NCI-H460 > 100 µM | NCI-H522 > 100 µM | NCI/ADR-RES > 100 µM | OVCAR-3 > 100 µM | OVCAR-4 > 100 µM | OVCAR-5 > 100 µM | OVCAR-8 > 100 µM | PC-3 > 100 µM | RPMI-8226 > 100 µM | RXF 393 > 100 µM | SF-268 > 100 µM | SF-295 > 100 µM | SF-539 > 100 µM | SK-MEL-28 > 100 µM | SK-MEL-2 > 100 µM | SK-MEL-5 > 100 µM | SK-OV-3 > 100 µM | SN12C > 100 µM | SNB-19 > 100 µM | SNB-75 > 100 µM | SW-620 > 100 µM | T47D > 100 µM | TK-10 > 100 µM | U-251 > 100 µM | UACC-62 > 100 µM | UO-31 > 100 µM

Cc1nnc2n1N=C(c1cc(F)c(Cl)cc1Cl)/C(=C/c1ccc3c(c1)OCO3)S2
inactive: 786-0 47.4 µM | A498 45.5 µM | A549 > 100 µM | ACHN 63.5 µM | BT-549 > 100 µM | CAKI-1 69.7 µM | CCRF-CEM 43 µM | COLO 205 > 100 µM | DU-145 72.8 µM | EKVX 23.1 µM | HCC 2998 48.4 µM | HCT-116 47.8 µM | HL-60 40.4 µM | HOP-62 37.1 µM | HOP-92 65.8 µM | HT-29 36.1 µM | Hs-578T 71.6 µM | IGROV-1 50.7 µM | K562 > 100 µM | KM12 > 100 µM | LOX IMVI 33.1 µM | M14 > 100 µM | MCF7 35.5 µM | MDA-MB-231 > 100 µM | MDA-MB-435 45.9 µM | MDA-N 39.3 µM | MOLT-4 38.1 µM | Malme-3M > 100 µM | NCI-H226 > 100 µM | NCI-H23 90.8 µM | NCI-H460 > 100 µM | NCI-H522 20.7 µM | NCI/ADR-RES 69.2 µM | OVCAR-3 34.4 µM | OVCAR-4 51.6 µM | OVCAR-5 32.1 µM | OVCAR-8 65.3 µM | PC-3 63.1 µM | RPMI-8226 43.6 µM | RXF 393 51.3 µM | SF-268 88.9 µM | SF-295 53.3 µM | SF-539 > 100 µM | SK-MEL-28 > 100 µM | SK-MEL-2 44 µM | SK-MEL-5 > 100 µM | SK-OV-3 > 100 µM | SN12C 53.7 µM | SNB-19 > 100 µM | SW-620 > 100 µM | T47D 70.6 µM | TK-10 > 100 µM | U-251 56.6 µM | UACC-257 71.1 µM | UACC-62 62.8 µM | UO-31 > 100 µM
52.5 µM: HCT-15
